Assay results taken from US10456387B2, “Phacetoperane for treating of attention deficit hyperactivity disorder” (NLS PHARMA AG, priority 2011, dated 2019).

Key:
young Wistar rats [1] = test: T-maze test, a model of ADHD (ability to wait / impulsiveness); type: in vivo, rat; conditions: for Effect on ability to wait relative to the control: administered IP before the test, BLK-010 1 mg/kg; for Effect on ability to wait relative to the control / Mean, Medication (choices of the large reward deferred by 30 s) / Mean, Cont-Post (choices of the large reward deferred by 30 s): methylphenidate 3 mg/kg; for Mean, Medication (choices of the large reward deferred by 30 s): medication sessions, IP 30 min before test; for Mean, Cont-Post (choices of the large reward deferred by 30 s): post-medication control sessions, one day after medication session 2, phacetoperane 1 mg/kg IP; for Mean, Cont-Pre (choices of the large reward deferred by 30 s): pre-medication control sessions, before any drug, male juvenile Wistar rats, n = 6, sessions of 5 tests; for Efficacy compared with methylphenidate in the ability to wait: BLK-010 1 mg/kg IP vs methylphenidate 3 mg/kg IP
young Wistar rats [2] = conditions: background description of the model; cited from earlier work

SMILES	Effect on ability to wait relative to the control (young Wistar rats [1])	Mean, Medication (choices of the large reward deferred by 30 s) (young Wistar rats [1]; phacetoperane 1 mg/kg, n = 6)	Mean, Cont-Post (choices of the large reward deferred by 30 s) (young Wistar rats [1]; n = 6)	Mean, Cont-Pre (choices of the large reward deferred by 30 s) (young Wistar rats [1])	Effect on number of times the large but deferred reward is chosen (young Wistar rats [2])	Efficacy compared with methylphenidate in the ability to wait (young Wistar rats [1])	Efficacy compared with methylphenidate in the ability to wait (young Wistar rats [1]; listed as BLK-010)	Improvement of impulsiveness, animals responding (young Wistar rats [1]; BLK-010 1 mg/kg IP, n = 6)	Habituation (before and after treatment) (young Wistar rats [1]; phacetoperane 1 mg/kg)
COC(=O)C(c1ccccc1)C1CCCCN1 (stereo not shown) [Methylphenidate, methylphenidate]	improve the ability to wait	3.67	0.83	1.17	seems to increase the number of times the large but deferred reward is chosen				
CC(=O)OC(c1ccccc1)C1CCCCN1 (racemic) [Phacetoperane, threo diastereoisomer of alpha-phenyl-2-piperidinemethanol acetate]	improve the ability to wait	4.17	0.33	1.17		always found to be more effective than methylphenidate	significantly and statistically more effective than methylphenidate	found in all the animals	does not lead to any habituation
